Measured values published in US20230092163A1, “COMPOUNDS AND COMPOSITIONS FOR TREATING CONDITIONS ASSOCIATED WITH STING ACTIVITY” (IFM Due, Inc., priority 2019, published 2023).

Target: STING (Homo sapiens, UniProt Q86WV6, G230A/H232R/R293Q/R71H)
Experiment: STING reporter assay: THP1-Dual KO-IFNAR2 cells stimulated with 2′3′cGAMP, luciferase reporter activity
Assay type: cell-based
Conditions: 15 μM 2′3′cGAMP, 24h, class symbols
Summary of the method: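 THP1-Dual KO-IFNAR2 cells (2×10E6 cells/mL) treated with compounds at 0.0017-100 μM, then stimulated with 2′3′cGAMP (15 μM final) delivered by Lipofectamine 2000; 24 h at 37° C. Supernatant luciferase read by QUANTI-Luc Plus luminescence; EC50 from dose-response.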

STING, sequence (Q86WV6 whole entry R71H/G230A/H232R/R293Q): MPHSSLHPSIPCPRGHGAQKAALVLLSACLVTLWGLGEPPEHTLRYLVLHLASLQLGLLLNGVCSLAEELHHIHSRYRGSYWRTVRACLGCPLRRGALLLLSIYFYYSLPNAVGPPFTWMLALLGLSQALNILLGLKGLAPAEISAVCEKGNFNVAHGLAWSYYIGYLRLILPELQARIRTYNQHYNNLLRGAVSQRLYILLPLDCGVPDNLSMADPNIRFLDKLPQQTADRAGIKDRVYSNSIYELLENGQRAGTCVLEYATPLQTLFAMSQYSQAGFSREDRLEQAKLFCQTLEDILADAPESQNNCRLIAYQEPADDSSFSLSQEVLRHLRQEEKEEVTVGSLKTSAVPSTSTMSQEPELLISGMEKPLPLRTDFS

EC50, 200 to 1000 nM:
O=C(NCCOc1cccc(C(F)(F)F)c1)Nc1ccc2cc[nH]c2c1 [Compound 525]
O=C(Nc1cnc(N2CC(F)(F)C2)c(F)c1)Nc1ccc2c(F)c[nH]c2c1 [Compound 531]
CC(=O)n1cc(F)c2ccc(NC(=O)Nc3ccc(C(F)(F)F)cc3)cc21 [Compound 534, 1-(1-acetyl-3-fluoro-1H-indol-6-yl)-3-(4-(trifluoromethyl)phenyl)urea]
O=C(Nc1cc(F)cc(C(F)(F)F)c1)Nc1ccc2c(F)c[nH]c2c1 [Compound 535]
O=C(NCc1cc(Cl)cc(C(F)(F)F)c1)Nc1cc(Cl)c2cc[nH]c2c1 [Compound 536]
CC(NC(=O)Nc1cc(Cl)c2cc[nH]c2c1)c1cc(Cl)cc(C(F)(F)F)c1 (centres unmarked) [Compound 537]
O=C(Nc1cc(Cl)c2cc[nH]c2c1)NC1CCC2(CCCCC2)CC1 [Compound 542]
Cc1ccc2nc(Nc3ccc4cc[nH]c4c3)ccc2c1C(F)(F)F [Compound 549]
Fc1ccc2nc(Nc3ccc4cc[nH]c4c3)ccc2c1C(F)(F)F [Compound 550]
Fc1cc2ccc(Nc3ccc4cc[nH]c4c3)nc2cc1C(F)(F)F [Compound 551]
Cc1cc2ccc(Nc3ccc4cc[nH]c4c3)nc2cc1C(F)(F)F [Compound 552]
FC(F)(F)c1c(Cl)ccc2nc(Nc3ccc4cc[nH]c4c3)ccc12 [Compound 553]
Fc1cc(C(F)(F)F)c2ccc(Nc3ccc4cc[nH]c4c3)nc2c1 [Compound 558]
FC(F)(F)c1cc(Cl)cc2nc(Nc3ccc4cc[nH]c4c3)ccc12 [Compound 563]
FC(F)(F)c1cc(Cl)c2ccc(Nc3ccc4cc[nH]c4c3)nc2c1 [Compound 564]
Cc1cc2ccc(C(F)(F)F)cc2nc1Nc1ccc2cc[nH]c2c1 [Compound 565]
FC(F)(F)c1nc(Nc2cc(Cl)c3cc[nH]c3c2)ccc1Cl [Compound 568]
FC(F)(F)c1cc(Nc2ccc3cc[nH]c3c2)nc(Nc2ccc3cc[nH]c3c2)c1 [Compound 570, N2,N6-bis(1H-indol-6-yl)-4-(trifluoromethyl)pyridine-2,6-diamine]
FC(F)(F)c1cccc2nc(Nc3ccc4cc[nH]c4c3)ccc12 [Compound 574, N-(1H-indol-6-yl)-5-(trifluoromethyl)quinolin-2-amine]
Clc1cc(Cl)c2ccc(Nc3ccc4cc[nH]c4c3)nc2c1 [Compound 577, 5,7-dichloro-N-(1H-indol-6-yl)quinolin-2-amine]
Cc1cc(Nc2ccc3cc[nH]c3c2)nc(C(F)(F)F)c1 [Compound 578]
N#Cc1cc(Nc2ccc3cc[nH]c3c2)cc(Nc2ccc3cc[nH]c3c2)n1 [Compound 582, 4,6-bis[(1H-indol-6-yl)amino]pyridine-2-carbonitrile]

EC50, 5000 to 100000 nM:
Cc1ncccc1-n1cc(C#N)c2ccc(NC(=O)Nc3ccc(C(F)(F)F)cc3)cc21 [Compound 527]
O=C(NCc1cc(Cl)cc(C(F)(F)F)c1)Nc1ccc2c(F)c[nH]c2c1 [Compound 538]
N#Cc1c[nH]c2cc(NC(=O)Nc3cccc(C(F)(F)F)c3)ccc12 [Compound 539]
CNC(=O)Cc1c[nH]c2cc(NC(=O)Nc3ccc(C(F)(F)F)cc3)ccc12 [Compound 540]
CNC(=O)c1cc(NC(=O)Nc2ccc(C(F)(F)F)cc2)cc2[nH]ccc12 [Compound 543]
CN(C)Cc1cc(NC(=O)Nc2ccc(C(F)(F)F)cc2)cc2[nH]ccc12 [Compound 546]
CN(C)C(=O)c1cc(NC(=O)Nc2ccc(C(F)(F)F)cc2)cc2[nH]ccc12 [Compound 547]
FC(F)(F)c1ccc2c(Cl)cc(Nc3ccc4cc[nH]c4c3)nc2c1 [Compound 562, 4-chloro-N-(1H-indol-6-yl)-7-(trifluoromethyl)quinolin-2-amine]
c1cc2ccc(Nc3ccc4c(n3)CCCC4)cc2[nH]1 [Compound 567, N-(1H-indol-6-yl)-5,6,7,8-tetrahydroquinolin-2-amine]
O=C(Nc1ccc(C(F)(F)F)cc1)Nc1cc(N2CCCC(Cn3cncn3)C2)c2cc[nH]c2c1 (centres unmarked) [Compound 572]
c1cnc2nc(Nc3ccc4cc[nH]c4c3)ccc2c1 [Compound 573, N-(1H-indol-6-yl)-1,8-naphthyridin-2-amine]
Cc1cc2cc[nH]c2cc1Nc1ccc2ccc(C(F)(F)F)cc2n1 [Compound 580, N-(5-methyl-1H-indol-6-yl)-7-(trifluoromethyl)quinolin-2-amine]
Clc1ccc(Nc2ccc3cc[nH]c3c2)nc1Nc1ccc2cc[nH]c2c1 [Compound 581, 3-chloro-N2,N6-bis(1H-indol-6-yl)pyridine-2,6-diamine]
Cc1nc(Nc2ccc3cc[nH]c3c2)ccc1Nc1ccc2cc[nH]c2c1 [Compound 583, N2,N5-bis(1H-indol-6-yl)-6-methylpyridine-2,5-diamine]

EC50, 1000 to 5000 nM:
C[C@@H](NC(=O)Nc1cc(Cl)c2cc[nH]c2c1)c1cc(Cl)cc(C(F)(F)F)c1 [Compound 521, (R)-1-(4-chloro-1H-indol-6-yl)-3-(1-(3-chloro-5-(trifluoromethyl)phenyl)ethyl)urea]
O=C(Nc1cccc(C(F)(F)F)c1)Nc1ccc2c(F)c[nH]c2c1 [Compound 523]
O=C(NCCOc1ccccc1C(F)(F)F)Nc1ccc2cc[nH]c2c1 [Compound 524]
N#Cc1c[nH]c2cc(NC(=O)Nc3ccc(C(F)(F)F)cc3)cc(F)c12 [Compound 528]
CC(=O)n1cc(C#N)c2ccc(NC(=O)Nc3ccc(C(F)(F)F)cc3)cc21 [Compound 529]
Cc1cc(NC(=O)Nc2ccc(C(F)(F)F)cc2)cc2[nH]cc(C#N)c12 [Compound 533]
Fc1cc(C(F)(F)F)cc2nc(Nc3ccc4cc[nH]c4c3)ccc12 [Compound 554]
FC(F)(F)c1ccc2ncc(Nc3ccc4cc[nH]c4c3)nc2c1 [Compound 555]
FC(F)(F)c1cc2nc(Nc3ccc4cc[nH]c4c3)ccc2cc1Cl [Compound 556]
c1cnc2nc(Nc3ccc4ccn(-c5ccc6cccnc6n5)c4c3)ccc2c1 [Compound 560, N-[1-(1,8-naphthyridin-2-yl)-1H-indol-6-yl]-1,8-naphthyridin-2-amine]
Cc1nc(Nc2ccc3cc[nH]c3c2)ccc1OC(C)C [Compound 571, N-[6-methyl-5-(propan-2-yloxy)pyridin-2-yl]-1H-indol-6-amine]
FC(F)(F)Oc1ccc2c(Cl)cc(Nc3ccc4cc[nH]c4c3)nc2c1 [Compound 576, 4-chloro-N-(1H-indol-6-yl)-7-(trifluoromethoxy)quinolin-2-amine]
FC(F)(F)c1ccc2ccc(Nc3ccc4cc[nH]c4c3)cc2n1 [Compound 579]
FC(F)c1ccc2ccc(Nc3ccc4cc[nH]c4c3)nc2c1 [Compound 586, 7-(difluoromethyl)-N-(1H-indol-6-yl)quinolin-2-amine]
COc1ccc2ccc(Nc3ccc4cc[nH]c4c3)nc2c1 [Compound 587, N-(1H-indol-6-yl)-7-methoxyquinolin-2-amine]
COc1ccc2c(Cl)cc(Nc3ccc4cc[nH]c4c3)nc2c1 [Compound 588, 4-chloro-N-(1H-indol-6-yl)-7-methoxyquinolin-2-amine]

EC50, 40 to 200 nM:
O=C(Nc1ccc(C2CC(F)(F)C2)c(F)c1)Nc1cc(Cl)c2cc[nH]c2c1 [Compound 548]

Same assay, conditions: 15 μM 2′3′cGAMP, 24h, numeric bounds

EC50, > 7380 nM:
Cc1c(NC(=O)Nc2ccc(C(F)(F)F)cc2)ccc2c(C#N)c[nH]c12 [Compound 526]

EC50, > 30000 nM:
CC(=O)c1c[nH]c2cc(NC(=O)Nc3ccc(C(F)(F)F)cc3)ccc12 [Compound 522]
N#Cc1c[nH]c2cc(NC(=O)Nc3cnc(N4CC(F)(F)C4)c(F)c3)ccc12 [Compound 530]
N#Cc1c[nH]c2cc(NC(=O)NCc3cc(Cl)cc(C(F)(F)F)c3)ccc12 [Compound 532]
CNC(=O)c1c[nH]c2cc(NC(=O)Nc3ccc(C(F)(F)F)cc3)ccc12 [Compound 541]
Cn1cc(-n2cc(C#N)c3ccc(NC(=O)Nc4ccc(C(F)(F)F)cc4)cc32)cn1 [Compound 544]
Cn1cc(-c2c[nH]c3cc(NC(=O)Nc4ccc(C(F)(F)F)cc4)ccc23)cn1 [Compound 545]
Cc1c(Nc2ccc3ccc(C(F)(F)F)cc3n2)ccc2cc[nH]c12 [Compound 557]
Fc1ccc2ccc(Nc3ccc4cc[nH]c4c3)nc2c1 [Compound 559, 7-fluoro-N-(1H-indol-6-yl)quinolin-2-amine]
COc1nc(Nc2ccc3cc[nH]c3c2)ccc1CO [Compound 561, {6-[(1H-indol-6-yl)amino]-2-methoxypyridin-3-yl}methanol]
c1cc2ccc(Nc3ccc4c(n3)CCC4)nc2[nH]1 [Compound 566]
Cc1nc(Nc2ccc3ccn(-c4ccc(OC(C)C)c(C)n4)c3c2)ccc1OC(C)C [Compound 569, N,1-bis[6-methyl-5-(propan-2-yloxy)pyridin-2-yl]-1H-indol-6-amine]
CC(=O)c1ccc2ccc(Nc3ccc4cc[nH]c4c3)nc2c1 [Compound 575, 1-{2-[(1H-indol-6-yl)amino]quinolin-7-yl}ethan-1-one]
Cc1nc(Nc2ccc3cc[nH]c3c2)ccc1F [Compound 584, N-(5-fluoro-6-methylpyridin-2-yl)-1H-indol-6-amine]
CC1(C)Oc2ccc(Nc3ccc4cc[nH]c4c3)nc2NC1=O [Compound 585, 6-[(1H-indol-6-yl)amino]-2,2-dimethyl-2H,3H,4H-pyrido[3,2-b][1,4]oxazin-3-one]
